29 compounds from US20240043427A1 (Gilead Sciences, Inc., priority 2020, published 2024) can be followed below.

For test [1], the target named is T1, CD73 (Homo sapiens (Human), UniProt P21589). It is filed as biochemical. The note with it: 1 mM NaH2PO4 in enzyme buffer, CD73 0.3 nM, AMP 15 uM.
The target in test [2] is T1, CD73. The test is described as follows: MDA-MB-231 Cell Based CD73 Activity Assay (DMEM). The conditions noted are these: MDA-MB-231-GFP cells, DMEM medium with 10% human plasma, 200 uM AMP.

T1 sequence (P21589 27-574): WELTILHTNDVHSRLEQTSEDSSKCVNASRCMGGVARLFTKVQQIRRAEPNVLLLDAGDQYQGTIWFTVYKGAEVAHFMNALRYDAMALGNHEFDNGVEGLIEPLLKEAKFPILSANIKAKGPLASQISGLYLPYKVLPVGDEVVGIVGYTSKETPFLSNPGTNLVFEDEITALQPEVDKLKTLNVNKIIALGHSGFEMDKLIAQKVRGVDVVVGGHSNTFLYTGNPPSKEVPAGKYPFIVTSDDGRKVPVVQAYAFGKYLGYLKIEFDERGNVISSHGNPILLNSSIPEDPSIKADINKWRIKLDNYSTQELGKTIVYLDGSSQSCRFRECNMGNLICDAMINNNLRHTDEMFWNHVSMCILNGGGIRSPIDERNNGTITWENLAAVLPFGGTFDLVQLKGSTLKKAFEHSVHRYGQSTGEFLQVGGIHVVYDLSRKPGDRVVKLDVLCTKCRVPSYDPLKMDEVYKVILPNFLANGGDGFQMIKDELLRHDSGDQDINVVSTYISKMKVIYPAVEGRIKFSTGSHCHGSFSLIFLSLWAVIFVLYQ

What is called IC50 is the midpoint of a concentration-inhibition curve. A lower IC50 goes with higher potency. A word on the EC50: it is the concentration at which the effect is half-maximal. A higher EC50 goes with lower potency in that assay. At CD73 [1], `CC(C)NC(=O)CC1CCN(c2cc(-c3c[nH]c(=O)[nH]c3=O)nn3ccnc23)C1` (stereo not shown) [Example 654, 2-(1-(6-(2,4-dioxo-1,2,3,4-tetrahydropyrimidin-5-yl)imidazo[1,2-b]pyridazin-8-yl)pyrrolidin-3-yl)-N-isopropylacetamide] displayed an IC50 of 54.5 nM. On CD73 [2], this compound gave a concentration giving a half-maximal response (EC50) of 133 nM.
For `O=C(CC(F)(F)F)N1CCC12CCN(c1cc(-c3c[nH]c(=O)[nH]c3=O)nn3ccnc13)C2` (stereo not shown) [Example 655, 5-(8-(1-(3,3,3-trifluoropropanoyl)-1,6-diazaspiro[3.4]octan-6-yl)imidazo[1,2-b]pyridazin-6-yl)pyrimidine-2,4(1H,3H)-dione], in that order: 40.4 nM and 254 nM.
For `CC(=O)N1CCC12CCN(c1cc(-c3c[nH]c(=O)[nH]c3=O)nn3ccnc13)C2` (stereo not shown) [Example 656, 5-(8-(1-acetyl-1,6-diazaspiro[3.4]octan-6-yl)imidazo[1,2-b]pyridazin-6-yl)pyrimidine-2,4(1H,3H)-dione], in that order: 10.1 nM and 57 nM.
For `CC(C)C(=O)N1CCC12CCN(c1cc(-c3c[nH]c(=O)[nH]c3=O)nn3ccnc13)C2` (stereo not shown) [Example 657, 5-(8-(1-isobutyryl-1,6-diazaspiro[3.4]octan-6-yl)imidazo[1,2-b]pyridazin-6-yl)pyrimidine-2,4(1H,3H)-dione], in that order: 81.3 nM and 227 nM.
On CD73 [1], `O=C(CC1CN(c2cc(-c3c[nH]c(=O)[nH]c3=O)nn3ccnc23)CC1(F)F)NC1(C(F)(F)F)CC1` (stereo not shown) [Example 658, 2-(1-(6-(2,4-dioxo-1,2,3,4-tetrahydropyrimidin-5-yl)imidazo[1,2-b]pyridazin-8-yl)-4,4-difluoropyrrolidin-3-yl)-N-(1-(trifluoromethyl)cyclopropyl)acetamide] showed an IC50 of 1.87 nM. Further, the response at CD73 [2] was half-maximal at 7.88 nM (EC50).
For `CC(C)NC(=O)CC1CN(c2cc(-c3c[nH]c(=O)[nH]c3=O)nn3ccnc23)CC1(F)F` (stereo not shown) [Example 659, 2-(1-(6-(2,4-dioxo-1,2,3,4-tetrahydropyrimidin-5-yl)imidazo[1,2-b]pyridazin-8-yl)-4,4-difluoropyrrolidin-3-yl)-N-isopropylacetamide], in that order: 3.98 nM and 38.1 nM.
For `O=C(CC1CN(c2cc(-c3c[nH]c(=O)[nH]c3=O)nn3ccnc23)CC1(F)F)NC12CC(F)(C1)C2` (stereo not shown) [Example 660, 2-(1-(6-(2,4-dioxo-1,2,3,4-tetrahydropyrimidin-5-yl)imidazo[1,2-b]pyridazin-8-yl)-4,4-difluoropyrrolidin-3-yl)-N-(3-fluorobicyclo[1.1.1]pentan-1-yl)acetamide], in that order: 6.05 nM and 33.6 nM.
For `O=C(CC1CN(c2cc(-c3c[nH]c(=O)[nH]c3=O)nn3ccnc23)CC1(F)F)NC12CC(C1)C2` (stereo not shown) [Example 661, N-(bicyclo[1.1.1]pentan-1-yl)-2-(1-(6-(2,4-dioxo-1,2,3,4-tetrahydropyrimidin-5-yl)imidazo[1,2-b]pyridazin-8-yl)-4,4-difluoropyrrolidin-3-yl)acetamide] the same measures were 4.68 nM and 25.5 nM.
In the case of `CC(C)NC(=O)C(F)(F)C1CCN(c2cc(-c3c[nH]c(=O)[nH]c3=O)nn3ccnc23)C1` (stereo not shown) [Example 662, 2-(1-(6-(2,4-dioxo-1,2,3,4-tetrahydropyrimidin-5-yl)imidazo[1,2-b]pyridazin-8-yl)pyrrolidin-3-yl)-2,2-difluoro-N-isopropylacetamide], the IC50 on CD73 [1] turned out to be 19.2 nM. Further, a half-maximal effect at CD73 [2] (EC50) was put at 88.6 nM.
For `CC(C)n1cc(CC2CCN(c3cc(-c4c[nH]c(=O)[nH]c4=O)nn4ccnc34)C2)nn1` (stereo not shown) [Example 663, 5-(8-(3-((1-isopropyl-1H-1,2,3-triazol-4-yl)methyl)pyrrolidin-1-yl)imidazo[1,2-b]pyridazin-6-yl)pyrimidine-2,4(1H,3H)-dione], in that order: 24.5 nM and 160 nM.
For `O=C(NC1(C(F)(F)F)CC1)O[C@H]1CN(c2cc(-c3c[nH]c(=O)[nH]c3=O)nn3c(F)cnc23)CC1(F)F` [Example 664, (S)-1-(6-(2,4-dioxo-1,2,3,4-tetrahydropyrimidin-5-yl)-3-fluoroimidazo[1,2-b]pyridazin-8-yl)-4,4-difluoropyrrolidin-3-yl (1-(trifluoromethyl)cyclopropyl)carbamate], in that order: 0.92 nM and 0.21 nM.
On CD73 [1], `O=C(NC12CC(C(F)(F)F)(C1)C2)O[C@H]1CN(c2cc(-c3c[nH]c(=O)[nH]c3=O)nn3c(F)cnc23)CC1(F)F` [Example 665, (S)-1-(6-(2,4-dioxo-1,2,3,4-tetrahydropyrimidin-5-yl)-3-fluoroimidazo[1,2-b]pyridazin-8-yl)-4,4-difluoropyrrolidin-3-yl (3-(trifluoromethyl)bicyclo[1.1.1]pentan-1-yl)carbamate] returned a 50% inhibitory concentration (IC50) of 1.46 nM. Further, the midpoint of the response at CD73 [2], the EC50, lay at 2.79 nM.
For `O=c1[nH]cc(-c2cc(N3C[C@H](Oc4cc(C(F)(F)F)cnn4)C(F)(F)C3)c3ncc(F)n3n2)c(=O)[nH]1` [Example 666, (S)-5-(8-(3,3-difluoro-4-((5-(trifluoromethyl)pyridazin-3-yl)oxy)pyrrolidin-1-yl)-3-fluoroimidazo[1,2-b]pyridazin-6-yl)pyrimidine-2,4(1H,3H)-dione], in that order: 1.8 nM and 2.8 nM.
Regarding `CC(C)CNc1cc(-c2c[nH]c(=O)[nH]c2=O)nn2ccnc12` [Example 667, 5-(8-(isobutylamino)imidazo[1,2-b]pyridazin-6-yl)pyrimidine-2,4(1H,3H)-dione], the IC50 at CD73 [1] came out at 100 nM. For the same compound, on CD73 [2], the EC50 stood at 414 nM.
For `CC(C)(C)CNc1cc(-c2c[nH]c(=O)[nH]c2=O)nn2ccnc12` [Example 668, 5-(8-(neopentylamino)imidazo[1,2-b]pyridazin-6-yl)pyrimidine-2,4(1H,3H)-dione] the same measures were more than 250 nM and 857 nM.
For `COCCNc1cc(-c2c[nH]c(=O)[nH]c2=O)nn2ccnc12` [Example 669, 5-(8-((2-methoxyethyl)amino)imidazo[1,2-b]pyridazin-6-yl)pyrimidine-2,4(1H,3H)-dione], in that order: more than 250 nM and 690 nM.
For `O=c1[nH]cc(-c2cc(NCC(F)F)c3nccn3n2)c(=O)[nH]1` [Example 670, 5-(8-((2,2-difluoroethyl)amino)imidazo[1,2-b]pyridazin-6-yl)pyrimidine-2,4(1H,3H)-dione], in that order: 154 nM and 573 nM.
Regarding `COc1ccc(CN(CC(F)F)c2cc(-c3c[nH]c(=O)[nH]c3=O)nn3ccnc23)cc1` [Example 671, 5-(8-((2,2-difluoroethyl)(4-methoxybenzyl)amino)imidazo[1,2-b]pyridazin-6-yl)pyrimidine-2,4(1H,3H)-dione], the IC50 on CD73 [1] was more than 250 nM. The compound further registered an EC50 at CD73 [2] of 1620 nM.
The compound `O=c1[nH]cc(-c2cc(NCC(F)(F)F)c3nccn3n2)c(=O)[nH]1` [Example 672, 5-(8-((2,2,2-trifluoroethyl)amino)imidazo[1,2-b]pyridazin-6-yl)pyrimidine-2,4(1H,3H)-dione] showed an IC50 at CD73 [1] of 148 nM. This compound also registered an EC50 at CD73 [2] of 383 nM.
In the case of `O=c1[nH]cc(-c2cc(OCCc3ccccc3)c3nccn3n2)c(=O)[nH]1` [Example 673, 5-(8-phenethoxyimidazo[1,2-b]pyridazin-6-yl)pyrimidine-2,4(1H,3H)-dione], on CD73 [1], the half-inhibitory concentration (IC50) came out at 5.46 nM. This compound also registered an EC50 at CD73 [2] of 31.6 nM.
For `CC(COc1cc(-c2c[nH]c(=O)[nH]c2=O)nn2ccnc12)c1ccccc1` (stereo not shown) [Example 674, 5-(8-(2-phenylpropoxy)imidazo[1,2-b]pyridazin-6-yl)pyrimidine-2,4(1H,3H)-dione] the same measures were 16.3 nM and 48.1 nM.
As for `O=c1[nH]cc(-c2cc(OCC(F)(F)F)c3nccn3n2)c(=O)[nH]1` [Example 675, 5-(8-(2,2,2-trifluoroethoxy)imidazo[1,2-b]pyridazin-6-yl)pyrimidine-2,4(1H,3H)-dione], it took 49.5 nM to reach half-maximal inhibition on CD73 [1] (IC50). The EC50 at CD73 [2] was 78.7 nM.
Consider `CC(C)(COc1cc(-c2c[nH]c(=O)[nH]c2=O)nn2ccnc12)C(F)(F)F` [Example 676, 5-(8-(3,3,3-trifluoro-2,2-dimethylpropoxy)imidazo[1,2-b]pyridazin-6-yl)pyrimidine-2,4(1H,3H)-dione], for which the IC50 against CD73 [1] is 141 nM. On CD73 [2], this compound showed an EC50 of 429 nM.
Turning to `CC(F)(F)COc1cc(-c2c[nH]c(=O)[nH]c2=O)nn2ccnc12` [Example 677, 5-(8-(2,2-difluoropropoxy)imidazo[1,2-b]pyridazin-6-yl)pyrimidine-2,4(1H,3H)-dione], the IC50 at CD73 [1] stood at 12.2 nM. Besides, on CD73 [2], the response was half-maximal at 22.2 nM (EC50).
For `CC(C)COc1cc(-c2c[nH]c(=O)[nH]c2=O)nn2ccnc12` [Example 678, 5-(8-isobutoxyimidazo[1,2-b]pyridazin-6-yl)pyrimidine-2,4(1H,3H)-dione] the same measures were 23.9 nM and 38.8 nM.
For `CC(C)C(C)Oc1cc(-c2c[nH]c(=O)[nH]c2=O)nn2ccnc12` (stereo not shown) [Example 680, 5-(8-((3-methylbutan-2-yl)oxy)imidazo[1,2-b]pyridazin-6-yl)pyrimidine-2,4(1H,3H)-dione], in that order: 225 nM and 454 nM.
For `O=c1[nH]cc(-c2cc(OCCC(F)(F)F)c3nccn3n2)c(=O)[nH]1` [Example 681, 5-(8-(3,3,3-trifluoropropoxy)imidazo[1,2-b]pyridazin-6-yl)pyrimidine-2,4(1H,3H)-dione] the same measures were 61.3 nM and 94 nM.
Compound `O=c1[nH]cc(-c2cc(OCC(F)(F)c3ccccc3)c3nccn3n2)c(=O)[nH]1` [Example 682, 5-(8-(2,2-difluoro-2-phenylethoxy)imidazo[1,2-b]pyridazin-6-yl)pyrimidine-2,4(1H,3H)-dione] had a half-maximal inhibitory concentration (IC50) on CD73 [1] of 1.59 nM. The EC50 at CD73 [2] was 17.9 nM.
For `C#CC1(C)CCN(c2cc(-c3c[nH]c(=O)[nH]c3=O)nn3ccnc23)C1` (stereo not shown) [Example 683, 5-(8-(3-ethynyl-3-methylpyrrolidin-1-yl)imidazo[1,2-b]pyridazin-6-yl)pyrimidine-2,4(1H,3H)-dione], in that order: 1.31 nM and 10.9 nM.
